Where two headings read alike, the source gives them in different places.
How the values were obtained:
[1] = target: T1, human TOR (Homo sapiens, UniProt P42345); test: mTOR enzyme assay (DELFIA, His6-S6K substrate); type: biochemical; conditions: read-out: mTOR Kinase Avg. IC50
T1 construct: FLAG

[2] = target: PI3K-alpha (Homo sapiens, UniProt P42336); test: PI3K-alpha fluorescence polarization assay; type: biochemical
PI3K-alpha, sequence (P42336 whole entry, species assumed): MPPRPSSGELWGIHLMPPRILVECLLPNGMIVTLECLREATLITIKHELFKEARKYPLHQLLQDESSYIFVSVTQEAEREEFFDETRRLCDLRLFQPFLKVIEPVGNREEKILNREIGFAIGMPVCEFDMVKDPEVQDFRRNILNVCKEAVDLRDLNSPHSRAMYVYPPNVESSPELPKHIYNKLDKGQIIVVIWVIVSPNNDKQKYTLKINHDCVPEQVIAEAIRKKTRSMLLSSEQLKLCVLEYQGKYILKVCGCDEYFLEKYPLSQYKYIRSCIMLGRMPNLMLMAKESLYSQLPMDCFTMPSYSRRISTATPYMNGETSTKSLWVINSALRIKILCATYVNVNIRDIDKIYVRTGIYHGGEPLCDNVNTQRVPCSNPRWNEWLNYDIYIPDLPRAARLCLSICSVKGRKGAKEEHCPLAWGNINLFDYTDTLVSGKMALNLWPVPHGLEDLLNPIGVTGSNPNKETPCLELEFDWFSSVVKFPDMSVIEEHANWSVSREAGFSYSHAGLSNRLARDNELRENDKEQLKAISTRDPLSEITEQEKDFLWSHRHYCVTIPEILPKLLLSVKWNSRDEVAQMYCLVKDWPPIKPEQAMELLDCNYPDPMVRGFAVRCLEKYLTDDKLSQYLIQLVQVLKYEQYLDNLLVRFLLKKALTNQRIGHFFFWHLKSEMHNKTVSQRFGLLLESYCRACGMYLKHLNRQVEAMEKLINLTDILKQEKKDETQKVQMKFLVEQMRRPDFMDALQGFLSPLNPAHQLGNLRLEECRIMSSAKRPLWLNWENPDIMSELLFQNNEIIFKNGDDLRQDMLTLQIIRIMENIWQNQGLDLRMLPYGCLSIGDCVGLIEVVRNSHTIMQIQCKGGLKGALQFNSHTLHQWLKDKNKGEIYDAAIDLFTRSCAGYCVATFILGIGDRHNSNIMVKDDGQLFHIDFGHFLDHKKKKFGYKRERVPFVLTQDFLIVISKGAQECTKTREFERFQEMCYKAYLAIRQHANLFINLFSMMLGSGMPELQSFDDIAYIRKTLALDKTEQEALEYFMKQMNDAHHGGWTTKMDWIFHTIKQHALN
PI3K-alpha, sequence (P27986 whole entry partner, species assumed): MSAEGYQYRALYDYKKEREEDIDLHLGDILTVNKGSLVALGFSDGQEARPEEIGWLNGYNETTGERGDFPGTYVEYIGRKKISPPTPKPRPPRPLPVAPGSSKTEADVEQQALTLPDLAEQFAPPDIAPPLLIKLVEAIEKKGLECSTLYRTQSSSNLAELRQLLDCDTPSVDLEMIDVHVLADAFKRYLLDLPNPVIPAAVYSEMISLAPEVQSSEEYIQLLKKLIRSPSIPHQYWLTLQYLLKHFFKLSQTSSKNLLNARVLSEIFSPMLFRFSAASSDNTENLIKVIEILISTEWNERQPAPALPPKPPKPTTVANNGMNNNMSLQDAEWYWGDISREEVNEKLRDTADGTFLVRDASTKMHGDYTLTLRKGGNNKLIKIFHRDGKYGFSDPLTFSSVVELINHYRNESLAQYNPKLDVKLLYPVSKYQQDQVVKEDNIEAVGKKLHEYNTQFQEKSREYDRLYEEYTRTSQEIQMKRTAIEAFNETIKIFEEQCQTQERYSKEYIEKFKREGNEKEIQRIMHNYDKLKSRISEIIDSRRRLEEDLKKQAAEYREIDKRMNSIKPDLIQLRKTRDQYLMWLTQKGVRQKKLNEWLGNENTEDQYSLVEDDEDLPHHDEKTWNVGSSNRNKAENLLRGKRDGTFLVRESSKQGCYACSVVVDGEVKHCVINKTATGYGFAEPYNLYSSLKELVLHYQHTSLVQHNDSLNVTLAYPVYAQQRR

Compound	IC50 [1]	IC50 ([2]; read-out: PI3Kα Avg. IC50)	IC50 ([2]; PI3Kα Avg. IC50)
O=C1C(=Cc2c(-c3ccccc3)n(Cc3ccncc3)c3ccccc23)Oc2cc(O)cc(O)c21 [Example 154, 4,6-dihydroxy-2-{[2-phenyl-1-(pyridin-4-ylmethyl)-1H-indol-3-yl]methylene}-1-benzofuran-3(2H)-one]	540 nM	1580 nM	–
O=C1C(=Cc2c[nH]c3ccccc23)Oc2cccc(O)c21 [Example 74, 4-hydroxy-2-(1H-indol-3-ylmethylene)-1-benzofuran-3(2H)-one]	9800 nM	12000 nM	–
NC(=O)Cn1c(-c2ccccc2)c(C=C2Oc3cc(O)cc(O)c3C2=O)c2ccccc21 [Example 161, 2-{3-[(4,6-dihydroxy-3-oxo-1-benzofuran-2(3H)-ylidene)methyl]-2-phenyl-1H-indol-1-yl}acetamide]	600 nM	1760 nM	–
COc1ccc2c(C=C3Oc4cc(O)cc(O)c4C3=O)c[nH]c2c1 [Example 186, 4,6-dihydroxy-2-[(6-methoxy-1H-indol-3-yl)methylene]-1-benzofuran-3(2H)-one]	16000 nM	5760 nM	–
CS(=O)(=O)c1ccc2c(C=C3Oc4cc(O)cc(O)c4C3=O)c[nH]c2c1 [Example 169, 4,6-dihydroxy-2-{[6-(methylsulfonyl)-1H-indol-3-yl]methylene}-1-benzofuran-3(2H)-one]	9100 nM	3590 nM	–
O=C1C(=Cc2c[nH]c3cc(F)ccc23)Oc2cc(O)cc(O)c21 [Example 176, 2-[(6-fluoro-1H-indol-3-yl)methylene]-4,6-dihydroxy-1-benzofuran-3(2H)-one]	8700 nM	1550 nM	–
Cc1cccc2c(/C=C3\Oc4cc(O)cc(O)c4C3=O)c[nH]c12 [Example 49, (2Z)-4,6-dihydroxy-2-[(7-methyl-1H-indol-3-yl)methylene]-1-benzofuran-3(2H)-one]	> 5000 nM	2430 nM	–
N#CCCCn1cc(C=C2Oc3cc(O)cc(O)c3C2=O)c2c(C#N)cccc21 [Example 264, 1-(3-cyanopropyl)-3-[(4,6-dihydroxy-3-oxo-1-benzofuran-2(3H)-ylidene)methyl]-1H-indole-4-carbonitrile]	1700 nM	3930 nM	–
O=C1C(=Cc2c[nH]c3ccc(OCc4ccccc4)cc23)Oc2cc(O)cc(O)c21 [Example 52, 2-{[5-(benzyloxy)-1H-indol-3-yl]methylene}-4,6-dihydroxy-1-benzofuran-3(2H)-one]	> 5000 nM	1890 nM	–
COc1ccc2c(c(C=C3Oc4cc(O)cc(O)c4C3=O)cn2C)c1C [Example 236, 4,6-dihydroxy-2-[(5-methoxy-1,4-dimethyl-1H-indol-3-yl)methylene]-1-benzofuran-3(2H)-one]	1600 nM	1470 nM	–
O=C1C(=Cc2c(-c3ccccc3)[nH]c3ccccc23)Oc2ccccc21 [Example 2, 2-[(2-phenyl-1H-indol-3-yl)methylene]-1-benzofuran-3(2H)-one]	> 20000 nM	> 10000 nM	–
N#Cc1cccc2[nH]cc(C=C3Oc4cc(O)cc(O)c4C3=O)c12 [Example 220, 3-[(4,6-dihydroxy-3-oxo-1-benzofuran-2(3H)-ylidene)methyl]-1H-indole-4-carbonitrile]	4300 nM	1980 nM	–
Cc1noc(C)c1-c1c(C=C2Oc3cc(O)cc(O)c3C2=O)c2ccccc2n1C [Example 191, 2-{[2-(3,5-dimethylisoxazol-4-yl)-1-methyl-1H-indol-3-yl]methylene}-4,6-dihydroxy-1-benzofuran-3(2H)-one]	390 nM	4180 nM	–
O=C1/C(=C/c2cn(Cc3ccccc3)c3ccccc23)Oc2cc(O)cc(O)c21 [Example 51, (2Z)-2-[(1-benzyl-1H-indol-3-yl)methylene]-4,6-dihydroxy-1-benzofuran-3(2H)-one]	> 5000 nM	> 10000 nM	–
COc1ccc2c(c(C=C3Oc4cc(O)cc(O)c4C3=O)cn2CCCC#N)c1C [Example 239, 4-{3-[(4,6-dihydroxy-3-oxo-1-benzofuran-2(3H)-ylidene)methyl]-5-methoxy-4-methyl-1H-indol-1-yl}butanenitrile]	5900 nM	4940 nM	–
O=C(Nc1ccc2[nH]cc(C=C3Oc4cc(O)cc(O)c4C3=O)c2c1)c1ccco1 [Example 183, N-{3-[(4,6-dihydroxy-3-oxo-1-benzofuran-2(3H)-ylidene)methyl]-1H-indol-5-yl}-2-furamide]	6100 nM	1200 nM	–
O=C1C(=Cc2c[nH]c3cc(Cl)ccc23)Oc2cc(O)cc(O)c21 [Example 172, 2-[(6-chloro-1H-indol-3-yl)methylene]-4,6-dihydroxy-1-benzofuran-3(2H)-one]	19000 nM	936 nM	–
CN(C)c1ccc(-c2c(C=C3Oc4cc(O)cc(O)c4C3=O)c3ccccc3n2C)cc1 [Example 198, 2-({2-[4-(dimethylamino)phenyl]-1-methyl-1H-indol-3-yl}methylene)-4,6-dihydroxy-1-benzofuran-3(2H)-one]	4500 nM	4870 nM	–

Compound	IC50 [1]	IC50 ([2]; read-out: PI3Kα Avg. IC50)	IC50 ([2]; PI3Kα Avg. IC50)
Cc1c(C=C2Oc3cc(O)cc(O)c3C2=O)c2cc(Cl)ccc2n1C [Example 233, 2-[(5-chloro-1,2-dimethyl-1H-indol-3-yl)methylene]-4,6-dihydroxy-1-benzofuran-3(2H)-one]	850 nM	2040 nM	–
O=C1C(=Cc2c(-c3ccccc3)n(Cc3cccnc3)c3ccccc23)Oc2cc(O)cc(O)c21 [Example 153, 4,6-dihydroxy-2-{[2-phenyl-1-(pyridin-3-ylmethyl)-1H-indol-3-yl]methylene}-1-benzofuran-3(2H)-one]	2900 nM	1580 nM	–
O=C1/C(=C/c2c[nH]c3ccc(OCc4ccccc4)cc23)Oc2cc(O)ccc21 [Example 34, (2Z)-2-{[5-(benzyloxy)-1H-indol-3-yl]methylene}-6-hydroxy-1-benzofuran-3(2H)-one]	> 20000 nM	> 10000 nM	–
CN(C)c1ccc(-c2[nH]c3ccccc3c2C=C2Oc3cc(O)cc(O)c3C2=O)cc1 [Example 211, 2-({2-[4-(dimethylamino)phenyl]-1H-indol-3-yl}methylene)-4,6-dihydroxy-1-benzofuran-3(2H)-one]	590 nM	1060 nM	–
Cc1c(C=C2Oc3cc(O)cc(O)c3C2=O)c2cccc(Br)c2n1C [Example 234, 2-[(7-bromo-1,2-dimethyl-1H-indol-3-yl)methylene]-4,6-dihydroxy-1-benzofuran-3(2H)-one]	14000 nM	> 10000 nM	–
O=C1C(=Cc2c(Br)[nH]c3ccccc23)Oc2c1ccc(O)c2O [Example 81, 2-[(2-bromo-1H-indol-3-yl)methylene]-6,7-dihydroxy-1-benzofuran-3(2H)-one]	> 20000 nM	234 nM	–
COc1cccc(-c2[nH]c3ccccc3c2C=C2Oc3cc(O)cc(O)c3C2=O)c1 [Example 209, 4,6-dihydroxy-2-{[2-(3-methoxyphenyl)-1H-indol-3-yl]methylene}-1-benzofuran-3(2H)-one]	490 nM	1160 nM	–
O=C1/C(=C/c2c(-c3ccc(F)cc3)[nH]c3ccccc23)Oc2cc(O)cc(O)c21 [Example 46, (2Z)-2-{[2-(4-fluorophenyl)-1H-indol-3-yl]methylene}-4,6-dihydroxy-1-benzofuran-3(2H)-one]	123 nM	–	1580 nM
COCCn1cc(C=C2Oc3cc(O)cc(O)c3C2=O)c2c(C#N)cccc21 [Example 266, 3-[(4,6-dihydroxy-3-oxo-1-benzofuran-2(3H)-ylidene)methyl]-1-(2-methoxyethyl)-1H-indole-4-carbonitrile]	810 nM	290 nM	–
N#Cc1cccc2c1c(C=C1Oc3cc(O)cc(O)c3C1=O)cn2Cc1ccncc1 [Example 263, 3-[(4,6-dihydroxy-3-oxo-1-benzofuran-2(3H)-ylidene)methyl]-1-(pyridin-4-ylmethyl)-1H-indole-4-carbonitrile]	260 nM	1680 nM	–
Cc1[nH]c2ccc([N+](=O)[O-])cc2c1C=C1Oc2cc(O)cc(O)c2C1=O [Example 162, 4,6-dihydroxy-2-[(2-methyl-5-nitro-1H-indol-3-yl)methylene]-1-benzofuran-3(2H)-one]	> 20000 nM	2450 nM	–
Cn1c(-c2cccc(O)c2)c(C=C2Oc3cc(O)cc(O)c3C2=O)c2ccccc21 [Example 192, 4,6-dihydroxy-2-{[2-(3-hydroxyphenyl)-1-methyl-1H-indol-3-yl]methylene}-1-benzofuran-3(2H)-one]	390 nM	2420 nM	–
Cc1[nH]c2ccccc2c1/C=C1\Oc2cc(O)cc(O)c2C1=O [Example 47, (2Z)-4,6-dihydroxy-2-[(2-methyl-1H-indol-3-yl)methylene]-1-benzofuran-3(2H)-one]	500 nM	–	3200 nM
O=C1C(=Cc2c(-c3ccccc3)[nH]c3ccccc23)Oc2cccc(O)c21 [Example 75, 4-hydroxy-2-[(2-phenyl-1H-indol-3-yl)methylene]-1-benzofuran-3(2H)-one]	5900 nM	2520 nM	–
Cn1cc(C=C2Oc3cc(O)cc(O)c3C2=O)c2c(O)cccc21 [Example 254, 4,6-dihydroxy-2-[(4-hydroxy-1-methyl-1H-indol-3-yl)methylene]-1-benzofuran-3(2H)-one]	650 nM	1660 nM	–
Cn1cc(C=C2Oc3cc(O)cc(O)c3C2=O)c2ccc(C(F)(F)F)cc21 [Example 237, 4,6-dihydroxy-2-{[1-methyl-6-(trifluoromethyl)-1H-indol-3-yl]methylene}-1-benzofuran-3(2H)-one]	> 20000 nM	2480 nM	–
CN(C)CCn1cc(C=C2Oc3cc(O)cc(O)c3C2=O)c2c(C#N)cccc21 [Example 265, 3-[(4,6-dihydroxy-3-oxo-1-benzofuran-2(3H)-ylidene)methyl]-1-[2-(dimethylamino)ethyl]-1H-indole-4-carbonitrile]	1300 nM	> 10000 nM	–
COC(=O)c1cccc2c1c(C=C1Oc3cc(O)cc(O)c3C1=O)cn2C [Example 267, methyl 3-[(4,6-dihydroxy-3-oxo-1-benzofuran-2(3H)-ylidene)methyl]-1-methyl-1H-indole-4-carboxylate]	86 nM	2060 nM	–

Reference: patent US20090311217A1, “3-SUBSTITUTED-1H-INDOLE COMPOUNDS, THEIR USE AS MTOR KINASE AND PI3 KINASE INHIBITORS, AND THEIR SYNTHESES” (priority 2008, published 2009)
